These results are taken from ChEMBL document CHEMBL3621159, “Discovery of an orally active subtype-selective HDAC inhibitor, chidamide, as an epigenetic modulator for cancer treatment” (Medchemcomm, 2014).

A short description of data set [1]: Half life in patient at 25 to 50 mg, administered as single dose. Format: ADME, organism-based. The settings on record: human, in vivo.
Data set [2] can be described thus: Cytotoxicity against human hematopoietic malignant cells assessed as growth inhibition. The format is functional.
Data set [3] in a line: Cytotoxicity against human solid tumor cells assessed as growth inhibition. Format: functional.
A short description of data set [4]: Cmax in patient at 32.5 mg, po administered as single dose. The format is ADME, organism-based. Also noted: dose 32.5 mg, route oral. The settings on record: human, in vivo.
The nature of data set [5]: AUC in patient at 32.5 mg, po administered as single dose. The format is ADME, organism-based. Conditions: human, in vivo.

As a reminder, the half-life is the time in which the quantity being followed falls by half. A higher half-life goes with slow decline. Broadly, the GI50 is the concentration giving 50% growth inhibition. The term Cmax denotes the highest concentration seen after dosing. A word on the AUC: it is concentration integrated over time. Low values mean low exposure, high ones high exposure. As for `Nc1cc(F)ccc1NC(=O)c1ccc(CNC(=O)/C=C/c2cccnc2)cc1` [TUCIDINOSTAT], in data set [1], the half-life was 24 h. The GI50 in data set [2] worked out at 1.86 µM; in data set [3], 6.65 µM. This compound returned a Cmax in data set [4] of 312 nM. Further, the AUC in data set [5] turned out to be 2.24 µM·h.
